Source: PubChem BioAssay (NCI)
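Compound exposure: 48 hours, 5 concentrations, 96-well plates. Abbreviation: GI50, concentration required for 50% inhibition of growth. TGI marks complete inhibition of growth.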

Columns and labels:
Experiment in all cases: NCI-60 cell line screen, 48 h
SW-620 colon = test system: SW-620 colon
SK-MEL-28 melanoma = test system: SK-MEL-28 melanoma
SF-295 CNS = test system: SF-295 CNS
A549 NSCLC = test system: A549 NSCLC
HCT-116 colon = test system: HCT-116 colon
SNB-75 CNS = test system: SNB-75 CNS
M14 melanoma = test system: M14 melanoma
SN12C renal = test system: SN12C renal
MDA-N = test system: MDA-N
SR leukemia = test system: SR leukemia

Compound | GI50 (SW-620 colon) [µM] | TGI (SW-620 colon) [µM] | GI50 (SK-MEL-28 melanoma) [µM] | TGI (SK-MEL-28 melanoma) [µM] | GI50 (SF-295 CNS) [µM] | TGI (SF-295 CNS) [µM] | GI50 (A549 NSCLC) [µM] | TGI (A549 NSCLC) [µM] | GI50 (HCT-116 colon) [µM] | TGI (HCT-116 colon) [µM] | GI50 (SNB-75 CNS) [µM] | TGI (SNB-75 CNS) [µM] | GI50 (M14 melanoma) [µM] | TGI (M14 melanoma) [µM] | GI50 (SN12C renal) [µM] | TGI (SN12C renal) [µM] | TGI (MDA-N) [µM] | TGI (SR leukemia) [µM] | GI50 (MDA-N) [µM] | GI50 (SR leukemia) [µM]
O=C1/C(=C/c2ccc(Cl)cc2)CCCc2ccc(F)cc21 | 15.4 | 31.6 | 14.7 | 40.9 | 31.4 | > 100 | 26.4 | > 100 | > 100 | > 100 | 48.3 | > 100 | 11.6 | 39.2 | 20.1 | 42.9 | – | – | – | –
Cn1nc2c(c1N)Cc1c(nn(C)c1N)-c1ccccc1-2 | – | > 100 | – | > 100 | – | > 100 | – | > 100 | – | > 100 | – | – | – | > 100 | – | > 100 | > 100 | > 100 | – | –
Cc1cc(OCc2nnc3sc(NC(=O)c4ccccc4)nn23)ccc1Cl | – | > 100 | – | > 100 | – | > 100 | – | > 100 | – | > 100 | – | – | – | > 100 | – | > 100 | – | – | – | –
COc1cc2c3c(cc(Cl)nc3c1OC)C(=O)C(=O)N2 | – | > 55.5 | – | 33.7 | – | 32.9 | – | 38.6 | – | 13.6 | – | 29.4 | – | 29.3 | – | 21 | – | > 29.6 | – | –
C=C1C[C@@H]2CC[C@@]34C[C@H]5O[C@H]6[C@@H](O3)[C@H]3O[C@H](CC[C@@H]3O[C@H]6[C@H]5O4)CC(=O)C[C@@H]3[C@@H](OC)[C@@H](C[C@H](O)CN)O[C@H]3C[C@H]3O[C@@H](CC[C@@H]1O2)C[C@@H](C)C3=C | – | > 1 | – | > 1 | – | 0.251 | – | > 1 | – | 0.101 | 0.00046 | > 1 | – | 0.0307 | – | > 1 | 0.000354 | – | 0.0001 | –
O=C1/C(=C/c2ccncc2)C(n2cccc2)c2c(Br)sc(Br)c21 (centres undefined) | – | 3.55 | – | 8.73 | – | 26.1 | – | 34.5 | – | 10.4 | – | 9.79 | – | – | – | 16.4 | 8.36 | 9.51 | – | –
CCOC(=O)Cn1nnc2cc(Nc3c(C)[n+]([O-])c4cc(F)c(OCC)cc4[n+]3[O-])ccc21 | – | > 100 | – | > 100 | – | > 100 | – | – | – | > 100 | – | – | – | > 100 | – | – | – | – | – | –
CCN(CCCCCCCCCCN1CC(=O)N(CCCCCCCCCCN(CC)Cc2ccccc2OC)CC1=O)Cc1ccccc1OC | 1.75 | 3.95 | 1.75 | 3.22 | 1.15 | 3.02 | 1.65 | 4.54 | – | – | 2.68 | 11.8 | – | – | 1.51 | 3.57 | – | 2.37 | – | 0.355
COC(=O)C1=C(C)NC(C)=C(C(=O)OC)C1c1cccc(N=O)c1 | – | 17.7 | – | 30.4 | – | > 100 | – | > 100 | – | 23.9 | – | – | – | 27 | – | 33.3 | 26.2 | > 100 | – | –
CCOc1ccc(NCC2CC/C(=C\C=C\c3ccccc3)C2=O)cc1 (centres undefined) | – | 21.3 | – | 35.5 | – | 79.5 | – | > 100 | – | 20.4 | – | 59.9 | – | 29.6 | – | 35.4 | – | > 33.3 | – | –
CC[N+]1(C)CCC(O)(c2ccc(C)cc2)C(C(=O)c2ccc(C)cc2)C1 (centres undefined) | – | 39.3 | – | – | – | > 100 | – | > 100 | – | > 100 | – | – | – | > 100 | – | > 100 | > 100 | 39.6 | – | –
Cc1cccc(NS(=O)(=O)c2ccc(N=Nc3c(O)c(C(=O)O)cc4ccccc34)cc2)n1 | – | > 100 | – | > 100 | – | > 100 | – | > 100 | – | > 100 | – | > 100 | – | > 100 | – | – | – | > 100 | – | –
CNC(=S)NNc1ncnc2c1c(-c1ccc(Cl)cc1)cn2-c1ccc(C)cc1 | – | 21.7 | – | 25.2 | – | 20 | – | 19.2 | – | 17.1 | – | – | – | 26.5 | – | 24.3 | 28 | > 100 | – | –
CCCCCCc1cc2cc(-c3csc(-c4ccc(OC)cc4)n3)c(=O)oc2cc1O | – | 34.3 | – | 24.6 | – | 28.5 | – | 32.8 | – | 20.1 | – | 47.2 | – | 27.5 | – | 23.6 | – | > 100 | – | –
O=c1c(-c2ccccc2)c(SCCN2CCCCCC2)n(-c2ccccc2)c(=S)n1-c1ccccc1 | – | > 100 | – | > 100 | – | > 100 | – | – | – | – | – | > 100 | – | – | – | – | – | 84.5 | – | –
O=C1CS/C(=N/N=C/c2cn(Cc3ccc(Cl)cc3Cl)c3ccccc23)N1 | – | > 100 | – | > 100 | – | > 100 | – | > 100 | – | > 100 | – | 54.4 | – | > 100 | – | 70.9 | – | > 100 | – | –
CCCO/N=[N+](\[O-])N(CC)CC | – | > 100 | – | > 100 | – | > 100 | – | > 100 | – | > 100 | – | – | – | > 100 | – | > 100 | – | > 100 | – | –
